Experimental data from publication PMC11881906, “Development of xanthone derivatives as effective broad-spectrum antimicrobials: Disrupting cell wall and inhibiting DNA synthesis” (Science Advances, 2025).
In brackets after ≈: the same amount, converted by molar mass.

Assays:
P. aeruginosa ATCC 9027 = experiment: Serial passage resistance induction; format: cell-based, Pseudomonas aeruginosa; details: 20-day passages at 0.5× MIC
Protocol: The bacteria were grown in a medium containing 0.5× MIC of each compound to prepare the bacterial suspension for the next MIC determination. The MICs were then recorded after incubation at 37°C for 24 hours. Daily passages were continued until the initial MIC increased by more than fourfold. The stability of acquired resistance was investigated by MIC determination and repeated for 20 days.

E. coli ATCC 25922 [1] = experiment: RNA-seq transcriptome response; format: cell-based, Escherichia coli; details: 4× MIC, 2 hours
Protocol: After exposure, 1-ml aliquots of cells were immediately pelleted at 4°C by centrifugation for 2 min at 2000 rpm. The supernatants were removed and immediately frozen in liquid nitrogen. The samples were stored at −80°C for later total RNA isolation. Total RNA was extracted using the bacterial RNA kit (Omega Bio-Tek, USA) according to the manufacturer’s instructions. The RNA integrity number values were obtained to assess RNA quality using an Agilent Genomics 2200 Tape Station instrument.
A total amount of 2 to 5 ng of the RNA per sample was executed as the input material to construct each cDNA library for RNA-seq using the NEBNext Ultra Directional RNA Library prep kit from Illumina. The quality of the resulting libraries was checked using Agilent High Sensitivity DNA chips to ensure proper library size distribution and the absence of small adapters.
Read mapping was aligned using Bowtie2 ([74]). HTSeq v0.6.1 was used for quantification of expression levels ([75]). DESeq2 on the R package (v1.12.4) was used to calculate DEGs. Differential expression was computed using edgeR: exactTest for each treatment versus the untreated control ([76]). The E. coli database used for mapping was GCF_017357505.1_ASM1735750v1_genomic.fna. Both the GO and KEGG (KEGG Ortholog database) enrichment analyses were done with the Fisher’s exact test. All P values were adjusted with the Benjamini-Hochberg procedure to generate false discovery rates (adjusted P values). GO enrichment analysis was carried out using the clusterProfiler package on the R platform ([77]). KEGG pathway mapping and figure generation were performed with the PathView website ([78]). COG of protein databases were searched with an E value of 1e^-5. For hierarchal clustering analysis of gene expression, the gene expression levels were normalized to z scores of log10 (FPKM + 1), where FPKM is fragments per kilobase per million. For hierarchal clustering analysis of the regulation of transcription factors, the unweighted pair group method with arithmetic mean (UPGMA) method was used as the clustering method. […] Volcano plots were generated by plot_volcano from soothsayer (https://github.com/jolespin/soothsayer) in Python v.3.6.6. Directed networks were constructed and plotted using NetworkX and Matplotlib Python packages, respectively. Hierarchical clustering analysis and heatmap calculation were performed with the pheatmap package on the R platform. The umap package on the R platform was used for uniform manifold approximation and projection (UMAP) analysis of FPKM vectors of each transcriptome. The figures were created via the ggplot2 package ([79]).

S. aureus ATCC 29213 [2] = experiment: Murine corneal infection model; format: in vivo, mice; details: topical, four times daily for 3 days; XT17 5 mg/ml, vancomycin 50 mg/ml; vs 5% glucose control
Source text: Female C57BL/6 mice (average weight, 20 g) were used for the in vivo efficacy experiments. Mice were housed in a specific pathogen–free facility on a 12-hour light-dark cycle, under the condition with ad libitum access to irradiation sterilized rodent diet and aseptic water. […]. These in vivo experiments were approved by the Experimental Animal Center of South China Agricultural University and conducted in accordance with the policies of the Ministry of Health of China.
The in vivo efficacy of compound XT17 was investigated in a murine corneal infection model. Before infection, the mice were immunosuppressed with three intraperitoneal injections of cyclophosphamide (100 mg/kg) over 5 days. After anesthesia with 2.5% avertin (500 mg/kg, ip), the left corneas of mice were scratched with 15 μl of S. aureus ATCC 29213 or P. aeruginosa ATCC 9027 (approximately 5 × 10^7 CFU/ml). Following 1 day of infection, the infected mice were randomly assigned into […] (n = 5) and subsequently administered with 0.5% compound XT17, 5% glucose solution, 5% vancomycin, or 0.3% gatifloxacin topically. S. aureus–caused murine corneal infections were treated four times a day for three consecutive days. Only 2 days of treatment were given for P. aeruginosa–caused murine corneal infections. On the first day, the drug was administered every 20 min for 1 hour and then three times at 2-hour intervals on the second day. The mice were given a 5% glucose solution as a negative control in the absence of any antimicrobial agent treatment. The infected corneas were collected after the mice were euthanized, and the number of viable bacteria was counted using MHA plates.

MRSA NCTC 10442 = experiment: MIC, broth microdilution; format: cell-based; details: Staphylococcus aureus, 24 h, read-out: MIC90 MRSA NCTC 10442
Protocol: (§1) MIC was determined using the broth microdilution method in accordance with Clinical and Laboratory Standards Institute guidelines. All compounds were dissolved in dimethyl sulfoxide (DMSO; final DMSO concentration of less than 0.5%) and sterile double-distilled water and then diluted with Mueller-Hinton broth (MHB). Each compound’s stock solution was serially twofold diluted, resulting in concentrations ranging from 0.39 to 100 μg/ml, and thereafter added to sterile 96-well plates. All bacterial cell suspensions were adjusted in MHB to attain a starting inoculum of 1 × 10^6 cells/ml. A total of 100 μl volume of the bacterial suspension was then added to each well. Following a 24-hour incubation at 37°C, the optical density at 600 nm (OD600) was confirmed by measuring absorbance at 600 nm with a BioTek microplate reader. […] All measurements were repeated three times with duplicates each time.

MRSA N315 = experiment: MIC, broth microdilution; format: cell-based; details: Staphylococcus aureus, 24 h, read-out: MIC90 MRSA N315
Protocol: as §1

S. aureus ATCC 29213 [3] = experiment: MIC, broth microdilution; format: cell-based; details: Staphylococcus aureus, ATCC29213, 24 h, read-out: MIC90 S. aureus ATCC 29213
Protocol: as §1

S. aureus ATCC 29213 [4] = experiment: Time-kill kinetic assay; format: cell-based, Staphylococcus aureus; details: 10× MIC, 24 hours
Protocol: The bacterial cultures were standardized to obtain an initial density that ranged from 10^5 to 10^6 cells/ml. The cultures were incubated in a shaking bath at 37°C. Viable counts were determined at 0-, 0.5-, 1.0-, 2.0-, 4.0-, 8.0-, and 24-hour intervals by spotting 10-μl aliquots of serially 10-fold diluted cultures onto Mueller-Hinton agar (MHA) plates. […] All measurements were repeated three times with duplicates each time.

E. coli ATCC 25922 [5] = experiment: MIC, broth microdilution; format: cell-based, Escherichia coli; details: Escherichia coli, ATCC25922, 24 h, read-out: MIC90 E. coli ATCC 25922
Protocol: as §1

rabbit erythrocytes = experiment: Hemolysis assay; format: cell-based; details: concentration causing 50% hemolysis of red blood cells; 1 hour, 37°C
Protocol: The hemolytic activity of antimicrobial agents was investigated as previously described ([70]). Briefly, the rabbit erythrocytes were centrifuged at 2500 rpm for 3 min before being washed twice with sterile phosphate-buffered saline (PBS) (pH 7.4). Subsequently, the erythrocytes were diluted with PBS to a final concentration of 8% (v/v). The DMSO-dissolved compounds were twofold serially diluted in PBS to achieve a final concentration with DMSO less than 0.5%. […] Sterile PBS and 0.2% Triton X-100 were used as negative and positive controls, respectively. After 1 hour of incubation at 37°C, the tested samples were centrifuged at 2500 rpm for 5 min, and aliquots of the supernatant were added to 96-well microplates. The hemoglobin release was determined by measuring the absorbance at 576 nm using a BioTek multimode reader. The percentage of hemolytic activity was calculated using the following formula: Hemolysis rate (%) = [OD576 (compound) − OD576 (PBS)]/[OD576 (Triton X-100) − OD576 (PBS)] × 100. All measurements were repeated three times with duplicates each time.

With O=C(O)c1cn(C2CC2)c2cc(N3CCNCC3)c(F)cc2c1=O [CPF, ciprofloxacin, reference compound] the “increase in MIC values during passages” value (P. aeruginosa ATCC 9027) was about 64 fold, the genes expressed (E. coli ATCC 25922 [1]) was 4682 genes and the “Log2FC dnaE (DNA polymerase III subunit alpha)” value (E. coli ATCC 25922 [1]; vs untreated) was 1.7739. The “Log2FC dnaN (DNA polymerase III subunit beta)” value (E. coli ATCC 25922 [1]; vs untreated) was 3.0865, the “Log2FC dnaQ (DNA polymerase III subunit epsilon)” value (E. coli ATCC 25922 [1]; vs untreated) was 1.3670 and the “Log2FC dnaT (primosomal protein DnaT)” value (E. coli ATCC 25922 [1]; vs untreated) was 2.2444. For the same molecule, the “Log2FC dnaX (DNA polymerase III subunit gamma/tau)” value (E. coli ATCC 25922 [1]; vs untreated) was 1.7268, the “Log2FC gyrA (DNA topoisomerase (ATP-hydrolyzing) subunit A)” value (E. coli ATCC 25922 [1]; vs untreated) was 2.2544 and the “Log2FC gyrB (DNA topoisomerase (ATP-hydrolyzing) subunit B)” value (E. coli ATCC 25922 [1]; vs untreated) was 2.4048. For the same molecule, the “Log2FC holB (DNA polymerase III subunit delta')” value (E. coli ATCC 25922 [1]; vs untreated) was 1.9890, the “Log2FC holD (DNA polymerase III subunit psi)” value (E. coli ATCC 25922 [1]; vs untreated) was 2.4551 and the “Log2FC parC (DNA topoisomerase IV subunit A)” value (E. coli ATCC 25922 [1]; vs untreated) was 1.5215. For the same molecule, the “Log2FC parE (DNA topoisomerase IV subunit B)” value (E. coli ATCC 25922 [1]; vs untreated) was 2.4557, the “Log2FC priA (primosomal protein N')” value (E. coli ATCC 25922 [1]; vs untreated) was 2.8529 and the “Log2FC priB (primosomal replication protein N)” value (E. coli ATCC 25922 [1]; vs untreated) was 3.5288. For the same molecule, the “Log2FC priC (primosomal replication protein N'')” value (E. coli ATCC 25922 [1]; vs untreated) was 1.7101, the “Log2FC recA (recombinase RecA)” value (E. coli ATCC 25922 [1]; vs untreated) was 6.2751 and the “Log2FC recF (DNA replication/repair protein RecF)” value (E. coli ATCC 25922 [1]; vs untreated) was 2.2046. The “Log2FC recG (ATP-dependent DNA helicase RecG)” value (E. coli ATCC 25922 [1]; vs untreated) was 1.1384, the “Log2FC recJ (single-stranded-DNA-specific exonuclease RecJ)” value (E. coli ATCC 25922 [1]; vs untreated) was 1.9882 and the “Log2FC recO (DNA repair protein RecO)” value (E. coli ATCC 25922 [1]; vs untreated) was 1.9736. For the same molecule, the “Log2FC recR (recombination mediator RecR)” value (E. coli ATCC 25922 [1]; vs untreated) was 1.8874, the “Log2FC ruvA (Holliday junction branch migration protein RuvA)” value (E. coli ATCC 25922 [1]; vs untreated) was 2.8598 and the “Log2FC ruvB (Holliday junction branch migration DNA helicase RuvB)” value (E. coli ATCC 25922 [1]; vs untreated) was 3.4475. The “Log2FC ruvC (crossover junction endodeoxyribonuclease RuvC)” value (E. coli ATCC 25922 [1]; vs untreated) was 1.8052, the “Log2FC ssb1 (single-stranded DNA-binding protein SSB1)” value (E. coli ATCC 25922 [1]; vs untreated) was 2.6468 and the down-regulated genes (E. coli ATCC 25922 [1]; vs untreated) was 130 genes. For the same molecule, the up-regulated genes (E. coli ATCC 25922 [1]; vs untreated) was 2246 genes and the differentially expressed genes (E. coli ATCC 25922 [1]; vs untreated, P < 0.05, absolute log2 fold change > 1) was 2376 genes.
For CN[C@H](CC(C)C)C(=O)N[C@H]1C(=O)N[C@@H](CC(N)=O)C(=O)N[C@H]2C(=O)N[C@H]3C(=O)N[C@H](C(=O)N[C@H](C(=O)O)c4cc(O)cc(O)c4-c4cc3ccc4O)[C@H](O)c3ccc(c(Cl)c3)Oc3cc2cc(c3O[C@@H]2O[C@H](CO)[C@@H](O)[C@H](O)[C@H]2O[C@H]2C[C@](C)(N)[C@H](O)[C@H](C)O2)Oc2ccc(cc2Cl)[C@H]1O [VAN, vancomycin, reference compound], the “log reduction in viable bacterial colonies in the infected corneas” value (S. aureus ATCC 29213 [2]) was 5.57 log, the MIC90 (MRSA NCTC 10442) was 1.56 µg/mL (≈ 1.08 µM) and the MIC90 (MRSA N315) was 1.56 µg/mL (≈ 1.08 µM). For the same molecule, the MIC90 (S. aureus ATCC 29213 [3]) was 0.78 µg/mL (≈ 0.538 µM), the “log decrease in bacterial load” value (S. aureus ATCC 29213 [4]) was 4.56 log and the MIC90 (E. coli ATCC 25922 [5]) was over 50 µg/mL. For the same molecule, the HC50 (rabbit erythrocytes) was over 200 µg/mL.
